Here are results for four molecules from publication doi:10.1101/2023.11.24.568596v1 (biorxiv, 2023).

What all share (conditions): binder
Assay [1] addresses JNK1 (Homo sapiens, UniProt P45983).
Assay [2] addresses T1, NEK1 (Homo sapiens, UniProt Q96PY6).
T1 sequence (Q96PY6 1-1258): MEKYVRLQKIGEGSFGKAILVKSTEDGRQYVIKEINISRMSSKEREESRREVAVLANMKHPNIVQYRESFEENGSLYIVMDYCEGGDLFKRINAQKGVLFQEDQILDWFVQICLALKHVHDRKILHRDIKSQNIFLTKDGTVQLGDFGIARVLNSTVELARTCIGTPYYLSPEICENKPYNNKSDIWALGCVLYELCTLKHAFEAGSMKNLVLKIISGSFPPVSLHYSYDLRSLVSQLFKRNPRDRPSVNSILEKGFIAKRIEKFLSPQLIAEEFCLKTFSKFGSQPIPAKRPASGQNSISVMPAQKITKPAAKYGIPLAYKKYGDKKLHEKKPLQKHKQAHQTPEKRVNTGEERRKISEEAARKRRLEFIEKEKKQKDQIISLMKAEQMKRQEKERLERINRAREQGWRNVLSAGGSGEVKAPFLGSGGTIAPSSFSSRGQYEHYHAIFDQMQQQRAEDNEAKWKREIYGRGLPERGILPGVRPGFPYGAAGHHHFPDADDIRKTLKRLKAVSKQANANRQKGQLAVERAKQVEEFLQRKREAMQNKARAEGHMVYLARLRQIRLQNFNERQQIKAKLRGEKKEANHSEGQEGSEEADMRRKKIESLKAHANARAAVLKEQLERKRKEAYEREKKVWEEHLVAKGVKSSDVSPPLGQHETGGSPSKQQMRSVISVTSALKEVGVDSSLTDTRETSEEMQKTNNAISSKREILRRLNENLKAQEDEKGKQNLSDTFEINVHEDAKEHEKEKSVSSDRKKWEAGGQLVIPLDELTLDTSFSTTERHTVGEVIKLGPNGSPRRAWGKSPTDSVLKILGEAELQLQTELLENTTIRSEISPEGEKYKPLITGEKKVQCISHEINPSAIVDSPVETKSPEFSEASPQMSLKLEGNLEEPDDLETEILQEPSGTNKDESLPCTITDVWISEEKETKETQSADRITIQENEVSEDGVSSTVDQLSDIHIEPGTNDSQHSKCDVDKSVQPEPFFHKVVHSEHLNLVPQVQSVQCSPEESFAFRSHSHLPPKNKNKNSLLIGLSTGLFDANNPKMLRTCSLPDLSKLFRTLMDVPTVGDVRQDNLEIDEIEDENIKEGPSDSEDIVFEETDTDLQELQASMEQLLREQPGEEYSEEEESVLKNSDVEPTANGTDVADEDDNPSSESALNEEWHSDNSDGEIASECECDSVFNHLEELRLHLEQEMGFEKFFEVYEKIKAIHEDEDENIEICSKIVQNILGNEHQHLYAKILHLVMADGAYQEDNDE

The target of assay [3] is TAF1 (Homo sapiens, UniProt P21675).
For assay [4], the target named is T2, MARK4 (Homo sapiens, UniProt Q96L34).
T2 sequence (Q96L34 1-752): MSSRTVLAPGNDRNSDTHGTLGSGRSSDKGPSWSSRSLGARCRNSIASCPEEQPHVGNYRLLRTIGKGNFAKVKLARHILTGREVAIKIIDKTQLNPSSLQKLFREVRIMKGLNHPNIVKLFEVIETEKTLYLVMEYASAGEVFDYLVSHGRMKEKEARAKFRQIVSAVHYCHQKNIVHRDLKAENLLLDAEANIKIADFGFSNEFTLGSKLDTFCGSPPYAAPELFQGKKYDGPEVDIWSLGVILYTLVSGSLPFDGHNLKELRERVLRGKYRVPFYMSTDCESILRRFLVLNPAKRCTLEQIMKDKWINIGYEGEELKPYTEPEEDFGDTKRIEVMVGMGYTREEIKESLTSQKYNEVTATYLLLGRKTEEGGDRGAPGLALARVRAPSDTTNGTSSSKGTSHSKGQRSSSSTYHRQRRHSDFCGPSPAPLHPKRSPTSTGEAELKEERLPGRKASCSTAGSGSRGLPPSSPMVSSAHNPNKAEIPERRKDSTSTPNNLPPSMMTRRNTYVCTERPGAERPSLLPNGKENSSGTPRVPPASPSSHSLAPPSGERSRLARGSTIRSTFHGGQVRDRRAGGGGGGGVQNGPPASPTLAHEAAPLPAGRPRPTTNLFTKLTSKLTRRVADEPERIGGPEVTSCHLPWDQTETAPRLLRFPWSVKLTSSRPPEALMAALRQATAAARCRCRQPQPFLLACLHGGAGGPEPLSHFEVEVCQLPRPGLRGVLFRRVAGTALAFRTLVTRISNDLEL

Assay [5] has as its target T3, Haspin (Homo sapiens, UniProt Q8TF76).
T3 sequence (Q8TF76 1-798): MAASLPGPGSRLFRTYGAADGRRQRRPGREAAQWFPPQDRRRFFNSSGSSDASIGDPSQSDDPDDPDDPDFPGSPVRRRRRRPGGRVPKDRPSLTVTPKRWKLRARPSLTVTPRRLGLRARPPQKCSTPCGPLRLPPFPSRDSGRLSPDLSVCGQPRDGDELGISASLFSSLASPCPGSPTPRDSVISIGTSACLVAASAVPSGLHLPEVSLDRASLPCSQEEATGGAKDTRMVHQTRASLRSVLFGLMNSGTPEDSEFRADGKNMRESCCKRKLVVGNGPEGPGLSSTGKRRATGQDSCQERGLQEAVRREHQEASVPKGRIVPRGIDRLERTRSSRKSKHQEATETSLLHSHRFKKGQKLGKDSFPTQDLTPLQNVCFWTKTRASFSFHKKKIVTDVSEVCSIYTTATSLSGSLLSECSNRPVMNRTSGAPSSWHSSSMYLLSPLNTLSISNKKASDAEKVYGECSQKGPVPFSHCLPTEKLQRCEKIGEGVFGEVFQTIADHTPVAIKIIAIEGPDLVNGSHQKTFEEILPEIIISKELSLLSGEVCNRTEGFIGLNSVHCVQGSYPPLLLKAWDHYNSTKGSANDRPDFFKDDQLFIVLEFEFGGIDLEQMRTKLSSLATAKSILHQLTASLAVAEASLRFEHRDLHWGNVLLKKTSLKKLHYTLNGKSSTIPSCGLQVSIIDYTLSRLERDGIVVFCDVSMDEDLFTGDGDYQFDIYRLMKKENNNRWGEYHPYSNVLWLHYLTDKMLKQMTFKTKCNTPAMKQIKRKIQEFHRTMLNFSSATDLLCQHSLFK

Sequence of JNK1 (P45983 whole entry): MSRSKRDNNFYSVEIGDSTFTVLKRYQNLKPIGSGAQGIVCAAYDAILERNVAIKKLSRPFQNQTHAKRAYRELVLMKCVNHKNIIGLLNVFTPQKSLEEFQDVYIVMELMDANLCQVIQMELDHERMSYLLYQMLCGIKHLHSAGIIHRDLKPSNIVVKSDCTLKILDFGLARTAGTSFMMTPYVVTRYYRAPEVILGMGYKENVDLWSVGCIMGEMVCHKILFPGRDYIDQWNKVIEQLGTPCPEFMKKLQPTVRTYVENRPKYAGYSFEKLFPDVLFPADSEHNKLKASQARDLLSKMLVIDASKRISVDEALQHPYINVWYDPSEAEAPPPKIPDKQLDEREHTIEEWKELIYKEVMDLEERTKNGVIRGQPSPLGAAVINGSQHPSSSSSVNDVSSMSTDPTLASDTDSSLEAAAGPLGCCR
Sequence of TAF1 (P21675 whole entry): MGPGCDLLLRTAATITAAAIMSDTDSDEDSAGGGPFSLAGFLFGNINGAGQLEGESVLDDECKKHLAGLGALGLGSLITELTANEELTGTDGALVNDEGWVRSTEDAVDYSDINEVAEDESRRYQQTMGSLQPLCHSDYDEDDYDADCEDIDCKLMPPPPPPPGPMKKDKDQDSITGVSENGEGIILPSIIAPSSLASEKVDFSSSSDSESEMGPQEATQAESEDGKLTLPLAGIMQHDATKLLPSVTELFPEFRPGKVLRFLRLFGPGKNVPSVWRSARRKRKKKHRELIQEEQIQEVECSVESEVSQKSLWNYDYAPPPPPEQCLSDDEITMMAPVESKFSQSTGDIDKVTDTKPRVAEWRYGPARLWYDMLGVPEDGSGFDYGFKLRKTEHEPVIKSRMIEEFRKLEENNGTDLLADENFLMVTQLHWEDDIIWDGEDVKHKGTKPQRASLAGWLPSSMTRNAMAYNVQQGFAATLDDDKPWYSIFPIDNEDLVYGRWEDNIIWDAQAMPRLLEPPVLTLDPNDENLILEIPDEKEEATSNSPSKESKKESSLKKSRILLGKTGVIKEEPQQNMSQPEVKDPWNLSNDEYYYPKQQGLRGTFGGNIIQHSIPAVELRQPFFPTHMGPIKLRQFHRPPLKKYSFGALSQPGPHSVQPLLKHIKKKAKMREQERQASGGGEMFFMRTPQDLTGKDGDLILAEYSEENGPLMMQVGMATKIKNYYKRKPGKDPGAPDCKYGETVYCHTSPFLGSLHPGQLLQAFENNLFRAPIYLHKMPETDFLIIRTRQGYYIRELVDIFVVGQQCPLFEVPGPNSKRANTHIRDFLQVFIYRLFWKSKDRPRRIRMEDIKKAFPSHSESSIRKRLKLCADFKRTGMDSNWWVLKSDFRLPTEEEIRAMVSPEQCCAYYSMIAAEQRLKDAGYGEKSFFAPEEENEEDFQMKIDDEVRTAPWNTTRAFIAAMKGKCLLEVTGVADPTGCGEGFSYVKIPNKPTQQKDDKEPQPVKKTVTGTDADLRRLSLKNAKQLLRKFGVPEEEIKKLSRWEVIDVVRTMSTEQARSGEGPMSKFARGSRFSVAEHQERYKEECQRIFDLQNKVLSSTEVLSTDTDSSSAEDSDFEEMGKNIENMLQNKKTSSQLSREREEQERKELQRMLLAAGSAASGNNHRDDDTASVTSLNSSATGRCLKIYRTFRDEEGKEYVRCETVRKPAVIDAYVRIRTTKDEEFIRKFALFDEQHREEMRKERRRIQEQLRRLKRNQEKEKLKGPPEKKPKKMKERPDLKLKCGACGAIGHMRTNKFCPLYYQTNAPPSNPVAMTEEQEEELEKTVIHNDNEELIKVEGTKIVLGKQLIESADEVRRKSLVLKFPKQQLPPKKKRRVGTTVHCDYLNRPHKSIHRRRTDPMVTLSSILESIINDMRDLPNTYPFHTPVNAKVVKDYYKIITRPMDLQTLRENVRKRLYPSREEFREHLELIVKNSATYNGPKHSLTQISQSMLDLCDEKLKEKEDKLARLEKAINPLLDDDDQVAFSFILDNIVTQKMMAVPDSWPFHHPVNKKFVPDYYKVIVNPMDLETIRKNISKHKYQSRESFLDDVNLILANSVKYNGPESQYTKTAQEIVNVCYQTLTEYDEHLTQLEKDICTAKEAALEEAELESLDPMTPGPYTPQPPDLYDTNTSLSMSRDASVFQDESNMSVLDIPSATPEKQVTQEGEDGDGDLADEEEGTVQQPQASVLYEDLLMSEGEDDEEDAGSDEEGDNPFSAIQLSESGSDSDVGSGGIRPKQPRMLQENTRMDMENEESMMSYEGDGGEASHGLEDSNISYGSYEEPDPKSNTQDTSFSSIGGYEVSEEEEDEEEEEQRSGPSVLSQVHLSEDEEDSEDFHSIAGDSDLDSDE

Turning to `COc1ccc(O)c(Nc2ncc3cc(-c4ccc(-c5cccc(C)n5)cc4Cl)c(=O)n(CCCCN)c3n2)c1` [compound 34, 8-(4-Aminobutyl)-6-(2-chloro-4-(6-methylpyridin-2-yl)phenyl)-2-((2-hydroxy-5-methoxy-phenyl)amino)pyrido[2,3-d]pyrimidin-7(8H)-one], the “dTm 34” value in assay [1] is 1.8 °C; in assay [2], -1.0 °C; in assay [3], 0.1 °C; in assay [4], 4.6 °C; in assay [5] it was -0.2 °C.
As to `Cc1cccc(-c2ccc(-c3cc4cnc(Nc5ccc(F)c(CO)c5)nc4n(CCCCN)c3=O)c(Cl)c2)n1` [compound 33, 8-(4-Aminobutyl)-6-(2-chloro-4-(6-methylpyridin-2-yl)phenyl)-2-((4-fluoro-3-(hydroxymethyl)phenyl)amino)pyrido[2,3-d]pyrimidin-7(8H)-one], the “dTm 33” value is 2.2 °C in assay [1]; -3.6 °C in assay [2]; -0.2 °C in assay [3]; 10.3 °C in assay [4]; -0.2 °C in assay [5].
For `COc1cc(N2CCOCC2)ccc1Nc1ncc2cc(-c3ccc(-c4cccc(C)n4)cc3Cl)c(=O)n(CCCCN)c2n1` [compound 35, 8-(4-Aminobutyl)-6-(2-chloro-4-(6-methylpyridin-2-yl)phenyl)-2-((2-methoxy-4-morpholino-phenyl)amino)pyrido[2,3-d]pyrimidin-7(8H)-one], the “dTm 35” value in assay [1] was 4.7 °C; in assay [2] it was -0.7 °C; in assay [3], -0.7 °C; in assay [4], 6.6 °C; in assay [5], -0.1 °C.
Regarding `COc1cc(N2CCN(C)CC2)ccc1Nc1ncc2cc(-c3ccc(-c4cccc(C)n4)cc3Cl)c(=O)n(CCCCN)c2n1` [compound 36, 8-(4-Aminobutyl)-6-(2-chloro-4-(6-methylpyridin-2-yl)phenyl)-2-((2-methoxy-4-(4-methylpiperazin-1-yl)phenyl)amino)pyrido[2,3-d]pyrimidin-7(8H)-one], the “dTm 36” value was 1.7 °C in assay [1]; 0.0 °C in assay [2]; -0.4 °C in assay [3]; 7.4 °C in assay [4]; -0.7 °C in assay [5].
